Results as given in US20260294870A1, “INDOLE LACTATE FOR THE TREATMENT OF MULTIPLE SCLEROSIS” (The Johns Hopkins University, priority 2023, published 2026).
Entries after “also recorded” stand apart in the source; their conditions may differ.

Tests used:
[1] = test system: murine oligodendrocyte precursor cells; test: Differentiation of murine oligodendrocyte precursor cells (immunocytochemistry, qPCR); format: cell-based, murine (neonatal mice); details: for OPC differentiation after PDGF-a withdrawal: PDGF-a withdrawal plus ILA or T3; for OPC differentiation (CC1 expression): compared to control conditions or OPCs treated with PDGF-a
Text: We tested the effect of several doses of indole lactate on differentiation of oligodendrocyte precursor cells isolated using immune-panning from neonatal mice.

[2] = test system: experimental autoimmune encephalomyelitis; test: Experimental autoimmune encephalomyelitis, indole lactate IP; format: in vivo, Mice (C57/BL6); details: for Disease severity (EAE): p<0.0001
Text: (§1) Mice (C57/BL6, 8-9 week old) were immunized with MOG35-55 peptide and CFA and received IP injection of PTX on day 0 and 2. […] Mice were weighed and scored daily using the following scale (0-normal, 1-limp tail, 2-hind-limb weakness, 3-hind-limb paralysis, 4-fore-limb weakness, 5-death).

[3] = test system: experimental autoimmune encephalomyelitis; test: Experimental autoimmune encephalomyelitis, oral indole lactate; format: in vivo, Mice (C57/BL6); details: for severity of EAE: oral, ILA 2 mM in drinking water from day 7 post-immunization, 3 weeks, p<0.0001 vs vehicle
Protocol: as §1
We subsequently performed additional experiments in which we induced EAE using the same paradigm, however at day 7 post-immunization mice were randomized to receive ILA orally in drinking water (ILA 2 mM) or acidified water (adjusted to a similar pH) for the next 3 weeks. At four weeks post-immunization mice were euthanized and tissues were collected and processed for immunohistochemistry. We stained sections of the spinal cord to assess for extent of demyelination and for infiltration of immune cells.
Additionally, we repeated experiments and euthanized mice at the peak of disease to obtain spinal cord tissues for flow cytometric analyses.

[4] = test system: Murine MOG specific T cells; test: T cell proliferation, activation and Th17 polarization by flow cytometry; format: cell-based, murine (2D2 TCR transgenic C57/BL6 mice)
Protocol: Murine MOG specific T cells were isolated and stimulated with […] Th17 polarizing conditions for 72 hours followed by flow-cytometry to analyze viability, proliferation and Th17 polarization in presence of vehicle or varying doses of ILA;
T cells were isolated from spleen and lymph nodes of 2D2 TCR transgenic C57/BL6 mice using negative selection (STEMCELL CD4 T cell isolation kit). T cells were then cultured in c-RPMI with MOG35-55 peptide in the presence of irradiated antigen presenting cells with or without additional cytokines to polarize the cells to a Th17 phenotype for 72 hours and then underwent flow-cytometry to analyze proliferation and Th17 polarization.

[5] = test system: macrophages; test: Nitric oxide production in macrophages; format: cell-based
[6] = test system: human embryonic stem cell derived oligodendrocyte precursor cells; test: Differentiation of human embryonic stem cell derived oligodendrocyte precursor cells (luciferase under MBP promoter); format: cell-based
Text: We also tested the effect of indole lactate on differentiation of human embryonic stem cell derived oligodendrocyte precursor cells. In this system, the cells produce luciferase under control of the promoter for MBP. Thus, OPC differentiation can be measured using the quantity of luciferase produced by cells.

[7] = test system: Cuprizone-induced model of demyelination; test: Cuprizone-induced model of demyelination, ILA 20 or 40 mg/kg; format: in vivo, Mice; details: 0.2% Cuprizone 4 weeks then regular chow one week
Protocol: We tested the ability of indole lactate to promote remyelination in the Cuprizone-induced model of demyelination. Mice were fed with 0.2% Cuprizone for 4 weeks to induce demyelination and then switched to regular chow for one week. At three weeks of Cuprizone feeding mice were randomized to treatment with ILA 20 mg/kg, ILA 40 mg/kg or vehicle for two weeks.

[8] = test system: mouse model of demyelination (cuprizone); test: Cuprizone model of demyelination, oral ILA in drinking water; format: in vivo, mice
Protocol: In subsequent experiments, we fed mice with 0.2% cuprizone for 5 weeks and then randomized them to ILA 2 mM in drinking water or acidified water as a control for 2 weeks. […] These observations provide evidence that oral administration of ILA promotes remyelination in vivo in a mouse model of demyelination.

[9] = test system: Arylhydrocarbon Receptor (AhR); test: CYP1B1 (AhR responsive gene) expression in human ES derived OPCs, quantitative PCR; format: cell-based
Text: We noted presence of AhR in Olig2+ and PDGFRα+ cells confirming that AhR is present in oligodendrocyte precursor cells. We also obtained RNA from human ES derived OPCs that had been treated with either vehicle or two different doses of ILA for 5 days.

[10] = test system: OPCs from wild type (WT) mice; test: OPC differentiation in OPCs from WT mice; format: cell-based
[11] = test system: OPCs from Ahr KO mice; test: OPC differentiation in OPCs from constitutive Ahr-KO mice; format: cell-based; details: listed as ILA
Text: We further evaluated the mechanism of ILA using OPCs from mice that lack the Ahr gene—constitutive Ahr-KO mice.

[12] = test system: human ES derived OPCs; test: OPC differentiation of human ES derived OPCs with AhR antagonist; format: cell-based; details: small molecule AhR antagonist
Text: We also tested the effects of blocking AhR signaling using a small molecules AhR antagonist.

[13] = test system: gut microbiota; test: Gut microbiota in EAE mice by 16s rRNA sequencing; format: in vivo
Text: We examined the change in the gut microbiota using 16s rRNA sequencing at baseline, peak of disease and chronic disease in mice receiving ILA or vehicle orally.

[14] = Circulating ILA and IAA levels with oral ILA supplementation; format: in vivo, mice
Text: FIG. 12A, FIG. 12B, FIG. 12C, FIG. 12D, FIG. 12E, FIG. 12F, FIG. 12G, FIG. 12H, and FIG. 12I show: FIG. 12A. Schematic of product of ILA and IAA and the change in levels with ILA supplementation in naïve mice. FIG. 12B. Clinical scores and plasma ILA and IAA levels at end of experiment in mice on vehicle or oral ILA supplementation. FIG. 12C. Change in ILA/IAA ratio. FIG. 12D. Correlation of ILA/IAA ratio and cumulative EAE score. FIG. 12E. Gut microbiota composition in vehicle and ILA groups at various time points (n=10 each group). FIG. 12F. Change in alpha diversity over the course of EAE.

[15] = spinal cord, four weeks post-immunization, oral ILA 2 mM in drinking water
[16] = spinal cord, peak of disease, oral ILA
[17] = ILA 2 mM in drinking water, 2 weeks, vs vehicle

N[C@@H](Cc1cc(I)c(Oc2ccc(O)c(I)c2)c(I)c1)C(=O)O [T3, reference compound]
OPC differentiation after PDGF-a withdrawal [1]: further potentiated

O=C(O)C(O)Cc1c[nH]c2ccccc12 (stereo not drawn) [indole lactate, indole-3-lactic acid]
disease severity, dose dependence (EAE) ([2]; 10 and 20 mg/kg IP twice daily vs vehicle): significant dose-dependent reduction in disease severity | Disease severity (EAE) ([2]; high-dose (20 mg/kg) IP twice daily vs vehicle): reduced significantly | Disease severity (EAE) ([2]; low-dose (10 mg/kg) IP twice daily vs vehicle): reduced significantly | immune cell infiltration on IHC and flow cytometry analysis ([3]; oral indole lactate vs vehicle): reduction in immune cell infiltration | severity of EAE [3]: reduced significantly | severity of EAE ([3]; listed as ILA): reduced severity of EAE | extent of demyelination on IHC [3, 15]: reduced extent of demyelination | immune cell infiltration on IHC [3, 15]: reduced extent of demyelination and immune cell infiltration | iNOS producing inflammatory macrophages (flow cytometry) [3, 16]: shift towards less iNOS producing inflammatory macrophages | infiltration of T cells and macrophages (flow cytometry) [3, 16]: reduced infiltration of T cells and macrophages | T cell activation ([4]; 72 hours): reduces T cell proliferation, activation | Th17 polarization ([4]; MOG35-55 peptide, Th17 polarizing cytokines, 72 hours, dose-dependent): reduced T cell proliferation and Th17 polarization in a dose-dependent manner | T cell proliferation ([4]; MOG35-55 peptide, irradiated antigen presenting cells, 72 hours, dose-dependent): reduces T cell proliferation; also recorded: reduced T cell proliferation and Th17 polarization in a dose-dependent manner | pro-inflammatory cytokine production from T cells ([4]; in culture): reduces T cell proliferation, activation and pro-inflammatory cytokine production; also recorded: reduced pro-inflammatory cytokine production | production of nitric oxide in macrophages [5]: reduced pro-inflammatory cytokine production from T cells in culture and the production of nitric oxide in macrophages | proportion of Olig2 and CC1 double-positive cells ([1]; ILA 150 μM vs vehicle): significantly higher proportion | proportion of Olig2 and CC1 double-positive cells ([1]; ILA 300 μM vs vehicle): significantly higher proportion | expression of MBP (qPCR) ([1]; ILA 300 μM with low dose T3 compared to T3 alone): significantly higher expression | OPC differentiation after PDGF-a withdrawal [1]: further potentiated | OPC differentiation (CC1 expression) [1]: dose-dependent increase in OPC differentiation | OPC differentiation (CC1 expression) ([1]; listed as ILA): increased differentiation of OPCs | oligodendrocyte precursor cell differentiation based on production of luciferase (marker of MBP expression) ([6]; 100 μM): promoted oligodendrocyte precursor cell differentiation | oligodendrocyte precursor cell differentiation based on production of luciferase (marker of MBP expression) ([6]; 300 μM): promoted oligodendrocyte precursor cell differentiation | OPC differentiation measured by Luciferase release ([6]; ILA treatment conditions, dose-dependent): significant increase in OPC differentiation | area of myelination in the corpus callosum (Black Gold staining) ([7]; ILA 20 mg/kg for two weeks): significant increase in area of myelination | area of myelination in the corpus callosum (Black Gold staining) ([7]; ILA 40 mg/kg for two weeks): significant increase in area of myelination | remyelination in the corpus callosum (black gold and fluoromyelin staining) ([8]; ILA 2 mM in drinking water, 2 weeks after 0.2% cuprizone 5 weeks, vs acidified water): significantly increased remyelination | g ratio (scanning EM, corpus callosum) [8, 17]: significantly lower g ratio | proportion of myelinated axons (scanning EM, corpus callosum) [8, 17]: higher proportion of myelinated axons | proportion of remyelinated axons (electron micrographs, corpus callosum) ([8]; oral ILA vs vehicle): higher proportion of remyelinated axons | CYP1B1 expression ([9]; high-dose ILA): CYP1B1 expression increased | expression of CYP1B1 (AhR responsive gene) ([9]; two doses of ILA, 5 days, vs vehicle, dose-response relationship): increased expression of CYP1B1 | OPC differentiation [10]: promoted OPC differentiation | OPC differentiation (pro-differentiation effect of ILA) [11]: loss of pro-differentiation effect; also recorded: the effect was lost | effect of AhR antagonist on pro-differentiating effect of ILA ([12]; high doses of ILA): this effect was lost at high doses | pro-differentiating effect of ILA in presence of AhR antagonist ([12]; low doses of ILA, listed as ILA): an AhR inhibitor reverses the effects of ILA on OPC differentiation; also recorded: the AhR antagonist blocked the pro-differentiating effects | acetylene degradation pathway (gut microbiota functional pathway) ([13]; ILA supplementation): reduced acetylene degradation pathway | change in multiple bacteria (abundance) ([13]; oral ILA vs vehicle): differential change in multiple bacteria | overall composition of the gut microbiota ([13]; oral ILA vs vehicle, baseline, peak and chronic disease): change in the overall composition of the gut microbiota | ILA/IAA ratio ([14]; EAE mice): increase in ILA/IAA ratio | circulating ILA levels ([14]; naïve mice): increased circulating ILA levels
